Results reported in patent US20100120763A1, “IMIDAZO[5,1-C][1,2,4]BENZOTRIAZINE DERIVATIVES AS INHIBITORS OF PHOSPHODIESTERASES” (priority 2008, published 2010).
pIC50: −log10 of the molar value.

Key:
PDE10A = target: T1, PDE10A (Homo sapiens, UniProt Q9Y233); test: Inhibition of recombinant PDE10A (baculovirus/SF21 system), [3H]-cAMP SPA; format: biochemical; settings: recombinant PDE10A1, cytosolic; 0.1 μM [3H]-cAMP, 37° C., 30 minutes; read-out: PDE10A IC50
T1 construct: made in house; host or cells: SF21 insect cells (baculovirus)
T1 sequence (Q9Y233 1-779 isoform Q9Y233-1): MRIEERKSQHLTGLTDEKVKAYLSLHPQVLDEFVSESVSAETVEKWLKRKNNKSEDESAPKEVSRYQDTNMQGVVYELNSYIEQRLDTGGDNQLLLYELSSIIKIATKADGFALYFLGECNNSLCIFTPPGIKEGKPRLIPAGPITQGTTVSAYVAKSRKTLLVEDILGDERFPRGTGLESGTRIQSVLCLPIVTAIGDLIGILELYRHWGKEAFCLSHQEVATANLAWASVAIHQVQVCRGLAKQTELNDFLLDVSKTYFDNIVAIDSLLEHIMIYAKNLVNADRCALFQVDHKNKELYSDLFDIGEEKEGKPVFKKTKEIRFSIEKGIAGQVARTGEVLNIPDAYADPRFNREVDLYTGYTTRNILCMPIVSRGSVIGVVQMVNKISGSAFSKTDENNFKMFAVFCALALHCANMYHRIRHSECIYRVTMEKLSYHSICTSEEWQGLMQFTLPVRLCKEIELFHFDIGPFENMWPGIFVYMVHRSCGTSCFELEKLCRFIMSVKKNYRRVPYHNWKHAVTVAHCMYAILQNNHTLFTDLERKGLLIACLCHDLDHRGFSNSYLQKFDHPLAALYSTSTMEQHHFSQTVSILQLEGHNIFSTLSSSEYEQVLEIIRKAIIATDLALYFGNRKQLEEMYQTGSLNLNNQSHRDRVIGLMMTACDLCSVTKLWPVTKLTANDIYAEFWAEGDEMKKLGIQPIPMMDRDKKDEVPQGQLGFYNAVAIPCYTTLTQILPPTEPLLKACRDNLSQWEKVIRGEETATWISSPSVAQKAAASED
Experimental: Inhibition of Recombinant PDE10A (Baculovirus/SF21 System)
The gene was than inserted into a baculovirus vector, ligated with the baculovirus DNA. The enzyme-protein was expressed in SF21-cells. The enzyme was isolated from these cells by harvesting the cells by an centrifugation at 500 g to collect the cells.
The cells were resuspended in 50 mM Tris-HCl/1 mM EDTA/250 mM Sucrose buffer, pH=7.4 (Sigma, Deisenhofen, Germany; Merck, Darmstadt, Germany) and lysed by sonification of the cells (three times for 15 seconds, Labsonic U, Fa. Braun, Degersheim, Switzerland, level “high”). The cytosolic PDE10A was obtained by a centrifugation at 48,000 g for 1 h in the supernatant and stored at −70° C.
PDE activity was determined in a one step procedure in microtiter plates. The reaction mixture of 100 μl contained 50 mM Tris-HCl/5 mM MgCl2 buffer (pH=7.4, Sigma, Deisenhofen, Germany; Merck, Darmstadt, Germany) 0.1 μM [3H]-cAMP (Amersham, Buckinghamshire, UK) and the enzyme. Non-specific enzyme activity was determined without the enzyme. The reaction was initiated by addition of the substrate solution and was carried out at 37° C. for 30 minutes. Enzymatic activity then was stopped by addition of 25 μl Ysi-SPA-beads (Amersham-Pharmacia). One hour later the mixture was measured in a liquid scintillation counter for microtiter plates (Microbeta Trilux). The Biomek 2000 (Beckman) was used routinely for pipetting of the incubation mixture. […] For determination of IC50 values the Hill-plot, 2-parameter-model, was used.

PDE2A = target: T2, PDE2A (Homo sapiens, UniProt O00408); test: Inhibition of recombinant PDE2A (expressed in baculovirus/SF21-cells), [3H]-cAMP SPA; format: biochemical
T2 construct: made in house; host or cells: SF21 insect cells (baculovirus)
T2 sequence (O00408 whole entry): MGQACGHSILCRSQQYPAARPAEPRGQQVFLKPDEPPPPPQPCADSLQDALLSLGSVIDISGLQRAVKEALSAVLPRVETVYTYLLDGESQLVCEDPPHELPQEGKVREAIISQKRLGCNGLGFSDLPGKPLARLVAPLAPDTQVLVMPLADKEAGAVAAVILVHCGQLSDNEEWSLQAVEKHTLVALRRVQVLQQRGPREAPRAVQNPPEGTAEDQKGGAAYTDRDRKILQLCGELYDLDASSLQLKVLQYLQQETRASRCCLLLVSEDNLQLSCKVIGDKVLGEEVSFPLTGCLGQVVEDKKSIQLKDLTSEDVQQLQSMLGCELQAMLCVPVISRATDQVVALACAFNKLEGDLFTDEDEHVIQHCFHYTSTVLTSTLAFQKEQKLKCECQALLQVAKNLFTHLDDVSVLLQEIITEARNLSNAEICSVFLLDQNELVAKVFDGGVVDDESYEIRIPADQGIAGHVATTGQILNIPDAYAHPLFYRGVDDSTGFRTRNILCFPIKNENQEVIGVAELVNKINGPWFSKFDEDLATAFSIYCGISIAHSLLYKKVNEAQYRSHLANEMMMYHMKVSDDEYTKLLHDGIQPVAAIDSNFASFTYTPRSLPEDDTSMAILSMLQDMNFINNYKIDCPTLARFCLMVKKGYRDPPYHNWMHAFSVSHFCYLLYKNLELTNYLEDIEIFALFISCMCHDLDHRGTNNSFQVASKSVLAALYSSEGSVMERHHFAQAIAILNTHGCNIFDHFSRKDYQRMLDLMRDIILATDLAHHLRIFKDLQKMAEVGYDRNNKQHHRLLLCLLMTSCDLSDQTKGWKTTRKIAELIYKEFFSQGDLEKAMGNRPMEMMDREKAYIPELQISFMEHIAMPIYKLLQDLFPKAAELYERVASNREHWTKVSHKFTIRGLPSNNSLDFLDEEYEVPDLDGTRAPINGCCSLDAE
Experimental: Inhibition of Recombinant PDE2A (Expressed in Baculovirus/SF21-Cells)
PDE2A (NM002599) was cloned and the gene was inserted in the baculovirus and the enzyme-protein expressed in SF21-cells. The enzyme was isolated from these cells by harvesting the cells by an centrifugation at 200 g to collect the cells. The cells were resuspended in 50 mM Tris-HCl/5 mM MgCl2 buffer (pH=7.4) (Sigma, Deisenhofen, Germany; Merck, Darmstadt, Germany) and lysed by a sonication of the cells (three times for 15 seconds, Labsonic U, Fa. Braun, Degersheim, Switzerland, level “high”). The membrane fraction of PDE2A was obtained by a centrifugation at 48 000 g for 1 h, resuspended in buffer and stored at −70° C.
PDE2A activity was determined in a one step procedure in microtiterplates. The reaction mixture of 100 μl contained 50 mM Tris-HCl/5 mM MgCl2 buffer (pH=7.4) (Sigma, Deisenhofen, Germany; Merck, Darmstadt, Germany), 0.5 μM [3H]-cAMP (Amersham, Buckinghamshire, UK), 1000 nM cGMP and the enzyme. Non-specific enzyme activity was tested in the absence of cGMP. The reaction was initiated by addition of the substrate solution and was carried out at 37° C. for 30 minutes. Enzymatic activity then was stopped by addition of 25 μl SPA-beads (Amersham-Pharmacia). One hour later the mixture was measured in a liquid scintillation counter for microtiterplates (Microbeta Trilux). For pipetting of the incubation mixture the robot Biomek (Fa. Beckman) was routinely used.
For determination of IC50 values the Hill-plot, 2-parameter-model, was used.

| SMILES | pIC50 (PDE10A) | pIC50 (PDE2A) |
| --- | --- | --- |
| COc1cc(F)c2nnc3c(C)nc(-c4cc(Cl)ccc4C)n3c2c1 [Example 79, 1-(5-chloro-2-methylphenyl)-6-fluoro-8-methoxy-3-methylimidazo[5,1-c][1,2,4]benzotriazine] | 7.82 | 8.08 |
| COc1cc(F)c2nnc3c(C)nc(-c4cc(C(F)(F)F)ccc4Cl)n3c2c1 [Example 82, 1-[2-chloro-5-(trifluoromethyl)phenyl]-6-fluoro-8-methoxy-3-methylimidazo[5,1-c][1,2,4]benzotriazine] | 6.70 | 7.22 |
| COc1cc(F)c2nnc3c(C)nc(-c4cc(OC(F)(F)F)ccc4Cl)n3c2c1 [Example 83, 1-[2-chloro-5-(trifluoromethoxy)phenyl]-6-fluoro-8-methoxy-3-methylimidazo[5,1-c][1,2,4]benzotriazine] | 7.18 | 7.78 |
| COc1cc(F)c2nnc3c(C)nc(-c4cccc(F)c4C)n3c2c1 [Example 84, 6-fluoro-1-(3-fluoro-2-methylphenyl)-8-methoxy-3-methylimidazo[5,1-c][1,2,4]benzotriazine] | 7.97 | 7.22 |
| COc1cc(F)c2nnc3c(C)nc(-c4c(C)nn(C)c4C)n3c2c1 [Example 85, 6-fluoro-8-methoxy-3-methyl-1-(1,3,5-trimethyl-1H-pyrazol-4-yl)imidazo[5,1-c][1,2,4]benzotriazine] | 7.26 | 7.43 |
| COc1cc(F)c2nnc3c(C)nc(-c4ccncc4)n3c2c1 [Example 87, 6-fluoro-8-methoxy-3-methyl-1-pyridin-4-ylimidazo[5,1-c][1,2,4]benzotriazine] | 6.61 | 5.90 |
| COc1cc(F)c2nnc3c(C)nc(-c4c(C)noc4C)n3c2c1 [Example 89, 1-(3,5-dimethylisoxazol-4-yl)-6-fluoro-8-methoxy-3-methylimidazo[5,1-c][1,2,4]benzotriazine] | 6.21 | 6.09 |
| COc1cc(F)c2nnc3c(C)nc(-c4cccnc4)n3c2c1 [Example 90, 6-fluoro-8-methoxy-3-methyl-1-pyridin-3-ylimidazo[5,1-c][1,2,4]benzotriazine] | 6.41 | 6.23 |
| COc1cc(F)c2nnc3c(C)nc(-c4sc(C)nc4C)n3c2c1 [Example 91, 1-(2,4-dimethyl-1,3-thiazol-5-yl)-6-fluoro-8-methoxy-3-methylimidazo[5,1-c][1,2,4]benzotriazine] | 7.36 | 7.25 |
| COc1cc(F)c2nnc3c(C)nc(-c4cnc(F)c(C)c4)n3c2c1 [Example 92, 6-fluoro-1-(6-fluoro-5-methylpyridin-3-yl)-8-methoxy-3-methylimidazo[5,1-c][1,2,4]benzotriazine] | 6.28 | 6.33 |
| COc1cc(F)c2nnc3c(C)nc(-c4ccc(F)nc4C)n3c2c1 [Example 93, 6-fluoro-1-(6-fluoro-2-methylpyridin-3-yl)-8-methoxy-3-methylimidazo[5,1-c][1,2,4]benzotriazine] | 6.60 | 6.51 |
| COc1cc(F)c2nnc3c(C)nc(-c4cccnc4F)n3c2c1 [Example 94, 6-fluoro-1-(2-fluoropyridin-3-yl)-8-methoxy-3-methylimidazo[5,1-c][1,2,4]benzotriazine] | 6.91 | 6.90 |
| COc1cncc(-c2nc(C)c3nnc4c(F)cc(OC)cc4n23)c1 [Example 95, 6-fluoro-8-methoxy-1-(5-methoxypyridin-3-yl)-3-methylimidazo[5,1-c][1,2,4]benzotriazine] | 7.34 | 7.40 |
| COc1cc(F)c2nnc3c(C)nc(-c4c(C)n[nH]c4C)n3c2c1 [Example 96, 1-(3,5-dimethyl-1H-pyrazol-4-yl)-6-fluoro-8-methoxy-3-methylimidazo[5,1-c][1,2,4]benzotriazine] | 7.27 | 7.39 |
| COc1cc(F)c2nnc3c(C)nc(-c4cnccc4C)n3c2c1 [Example 97, 6-fluoro-8-methoxy-3-methyl-1-(4-methylpyridin-3-yl)imidazo[5,1-c][1,2,4]benzotriazine] | 6.84 | 6.84 |
| COc1cc(F)c2nnc3c(C)nc(-c4cc(C(N)=O)ccc4F)n3c2c1 [Example 98, 4-fluoro-3-(6-fluoro-8-methoxy-3-methylimidazo[5,1-c][1,2,4]benzotriazin-1-yl)benzamide] | 7.81 | 7.35 |
| COc1cc(F)cc2c1nnc1c(C)nc(-c3cc(C(F)(F)F)ccc3Cl)n12 [Example 101, 1-[2-chloro-5-(trifluoromethyl)phenyl]-8-fluoro-6-methoxy-3-methylimidazo[5,1-c][1,2,4]benzotriazine] | 7.37 | 6.59 |
| COc1ccc(Cl)cc1-c1nc(C)c2nnc3c(OC)cc(F)cc3n12 [Example 102, 1-(5-chloro-2-methoxyphenyl)-8-fluoro-6-methoxy-3-methylimidazo[5,1-c][1,2,4]benzotriazine] | 7.84 | 6.15 |

The next compounds have a higher pIC50 (PDE10A) than those just listed; values first:

| pIC50 (PDE10A) | pIC50 (PDE2A) | SMILES |
| --- | --- | --- |
| 8.03 | 7.44 | COc1cc(F)c2nnc3c(C)nc(-c4sccc4C)n3c2c1 [Example 81, 6-fluoro-8-methoxy-3-methyl-1-(3-methylthiophen-2-yl)imidazo[5,1-c][1,2,4]benzotriazine] |
| 8.04 | 4.70 | COc1cccc(-c2nc(C)c3nnc4c(OC)cc(F)cc4n23)c1 [Example 99, 8-fluoro-6-methoxy-1-(3-methoxyphenyl)-3-methylimidazo[5,1-c][1,2,4]benzotriazine] |
| 8.07 | 8.48 | COc1ccc(Cl)c(-c2nc(C)c3nnc4c(F)cc(OC)cc4n23)c1 [Example 78, 1-(2-chloro-5-methoxyphenyl)-6-fluoro-8-methoxy-3-methylimidazo[5,1-c][1,2,4]benzotriazine] |
| 8.08 | 5.47 | COc1cc(F)c2nnc3c(C)nc(-c4ccccc4OC)n3c2c1 [Example 86, 6-fluoro-8-methoxy-1-(2-methoxyphenyl)-3-methylimidazo[5,1-c][1,2,4]benzotriazine] |
| 8.10 | 7.85 | COc1cc(F)c2nnc3c(C)nc(-c4cc(Cl)ccc4F)n3c2c1 [Example 88, 1-(5-chloro-2-fluorophenyl)-6-fluoro-8-methoxy-3-methylimidazo[5,1-c][1,2,4]benzotriazine] |
| 8.10 | 6.47 | COc1cc(F)cc2c1nnc1c(C)nc(-c3cc(Cl)ccc3F)n12 [Example 106, 1-(5-chloro-2-fluorophenyl)-8-fluoro-6-methoxy-3-methylimidazo[5,1-c][1,2,4]benzotriazine] |
| 8.15 | 8.03 | COc1cc(F)c2nnc3c(C)nc(-c4cc(F)ccc4Cl)n3c2c1 [Example 80, 1-(2-chloro-5-fluorophenyl)-6-fluoro-8-methoxy-3-methylimidazo[5,1-c][1,2,4]benzotriazine] |
| 8.19 | 6.05 | COc1ccccc1-c1nc(C)c2nnc3c(OC)cc(F)cc3n12 [Example 100, 8-fluoro-6-methoxy-1-(2-methoxyphenyl)-3-methylimidazo[5,1-c][1,2,4]benzotriazine] |
| 8.27 | 6.77 | COc1cc(F)cc2c1nnc1c(C)nc(-c3cc(Cl)ccc3C)n12 [Example 104, 1-(5-chloro-2-methylphenyl)-8-fluoro-6-methoxy-3-methylimidazo[5,1-c][1,2,4]benzotriazine] |
| 8.33 | 6.36 | COc1cc(F)cc2c1nnc1c(C)nc(-c3cc(F)ccc3C)n12 [Example 103, 8-fluoro-1-(5-fluoro-2-methylphenyl)-6-methoxy-3-methylimidazo[5,1-c][1,2,4]benzotriazine] |
| 8.53 | 7.20 | COc1cc(F)cc2c1nnc1c(C)nc(-c3cc(C)ccc3Cl)n12 [Example 107, 1-(2-chloro-5-methylphenyl)-8-fluoro-6-methoxy-3-methylimidazo[5,1-c][1,2,4]benzotriazine] |
